According to BindingDB's records for doi:10.1021/acs.jmedchem.0c00988 (Rapt Therapeutics, 2020):

Assays:
[1] = Antagonist activity at CCR4 in human CCRF-CEM cells assessed as inhibition of CCL22-mediated chemotaxis preincubated for 30 mins followed by CCL22 addition and measured after 60 mins in presence of 100% human serum by CellTiter-Glo assay
[2] = Antagonist activity at CCR4 in mouse Treg cells assessed as inhibition of CCL22-mediated chemotaxis preincubated for 30 mins followed by CCL22 addition and measured after 60 mins in presence of 100% mouse serum by CellTiter-Glo assay
[3] = Antagonist activity at CCR4 in human Treg cells assessed as inhibition of CCL22-mediated chemotaxis preincubated for 30 mins followed by CCL22 addition and measured after 60 mins in presence of 100% human serum by CellTiter-Glo assay
[4] = Antagonist activity at CCR4 in human CCRF-CEM cells assessed as inhibition of CCL17-mediated chemotaxis preincubated for 30 mins followed by CCL17 addition and measured after 60 mins in presence of 100% human serum by CellTiter-Glo assay

Compound | IC50 [1] [µM] | further results
Cc1nn([C@H](C)c2ccc(Cl)cc2Cl)c2nc(N3CC([C@H]4CCCN(CCC(N)=O)C4)C3)cnc12 | 0.247 | 
Cc1nn([C@H](C)c2ccc(Cl)cc2Cl)c2nc(N3CC([C@H]4CCCN(CCCC(=O)O)C4)C3)cnc12 | 0.559 | 
C[C@H](c1ccc(Cl)cc1Cl)n1nc(C#N)c2ncc(N3CC([C@H]4CCCN(CCC(=O)O)C4)C3)nc21 | 0.409 | 
Cc1nn([C@H](C)c2ccc(Cl)cc2Cl)c2nc(N3CC([C@H]4CCCN(CCCO)C4)C3)cnc12 | 0.109 | 
Cc1nn([C@H](C)c2ccc(Cl)cc2Cl)c2nc(N3CC([C@H]4CCCN(CCC(=O)O)C4)C3)cnc12 | 0.37 | 
C[C@H](c1ccc(Cl)cc1Cl)n1nc(C(N)=O)c2ncc(N3CC([C@H]4CCCN(CCO)C4)C3)nc21 | 0.036 | 
Cc1nn([C@H](C)c2ccc(Cl)cc2Cl)c2nc(N3CC([C@H]4CCCN(CCO)C4)C3)cnc12 | 0.074 | 
C[C@H](c1ccc(Cl)cc1Cl)n1nc(C#N)c2ncc(N3CC([C@H]4CCCN(CCC(F)(F)F)C4)C3)nc21 | 1.5 | 
C[C@H](c1ccc(Cl)cc1Cl)n1nc(C#N)c2ncc(N3CC([C@H]4CCCN(CCO)C4)C3)nc21 | 0.05 | IC50 [2]: 0.039 µM; IC50 [3]: 0.033 µM; IC50 [4]: 0.064 µM
CC(=O)NCCN1CCC[C@H](C2CN(c3cnc4c(C)nn([C@H](C)c5ccc(Cl)cc5Cl)c4n3)C2)C1 | 0.04 | 
CNC(=O)c1nn([C@H](C)c2ccc(Cl)cc2Cl)c2nc(N3CC([C@H]4CCCN(CCO)C4)C3)cnc12 | 0.446 | 
C[C@H](c1ccc(Cl)cc1Cl)n1nc(C#N)c2ncc(N3CC([C@H]4CCCN(CCC#N)C4)C3)nc21 | 0.523 | 
Cc1nn([C@H](C)c2ccc(Cl)cc2Cl)c2nc(N3CC([C@H]4CCCN(CCCS(C)(=O)=O)C4)C3)cnc12 | 0.259 | 
Cc1nn([C@H](C)c2ccc(Cl)cc2Cl)c2nc(N3CC([C@H]4CCCN(CCNS(C)(=O)=O)C4)C3)cnc12 | 0.136 | 
Cc1nn([C@H](C)c2ccc(Cl)cc2Cl)c2nc(N3CC([C@H]4CCCN(CCNC(=O)C(C)C)C4)C3)cnc12 | 0.059 | 
Cc1nn([C@H](C)c2ccc(Cl)cc2Cl)c2nc(N3CC([C@H]4CCCN(CCS(N)(=O)=O)C4)C3)cnc12 | 0.717 | 
COC(=O)NCCN1CCC[C@H](C2CN(c3cnc4c(C)nn([C@H](C)c5ccc(Cl)cc5Cl)c4n3)C2)C1 | 0.133 | 
C[C@H](c1ccc(Cl)cc1Cl)n1nc(C#N)c2ncc(N3CC([C@H]4CCCN(CC(=O)O)C4)C3)nc21 | 0.775 | 
C[C@H](c1ccc(Cl)cc1Cl)n1nc(C(=O)N(C)C)c2ncc(N3CC([C@H]4CCCN(CCO)C4)C3)nc21 | 0.379 | 
Cc1nn([C@H](C)c2ccc(Cl)cc2Cl)c2nc(N3CC([C@H]4CCCN(CCNS(=O)(=O)C(C)C)C4)C3)cnc12 | 0.115 | 
Cc1nn([C@H](C)c2ccc(Cl)cc2Cl)c2nc(N3CC([C@H]4CCCN(CCS(C)(=O)=O)C4)C3)cnc12 | 0.575 | 
C[C@H](c1ccc(Cl)cc1Cl)n1nc(C#N)c2ncc(N3CC([C@H]4CCCN(Cc5cnc[nH]5)C4)C3)nc21 | 0.097 | 
